Source: patent publication EP4755881A1 (Wuhan Createrna Science and Technology Co., Ltd., priority 2023, dated 2025)
pIC50: −log10 of the molar value. Where two headings read alike, the source gives them in different places.

What was measured:
[1] = target: hLPAR1 (human lysophosphatidic acid receptor 1, Accession No.: NM_001401.4) (Homo sapiens, UniProt Q92633); assay: cell-based; conditions: FLIPR method, CHO-K1 cells overexpressing hLPAR1
Procedure, shortened: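 Antagonist mode in CHO-K1 cells stably expressing hLPAR1, Fluo-4 loaded; compound preincubated 30 min at room temperature before 1 µM oleoyl-LPA (final) challenge.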

[2] = Pharmacokinetic study in rats (oral gavage and tail vein injection, plasma LC-MS/MS); assay type: in vivo
Experimental: Male SPF-grade SD rats (Beijing Vital River Laboratory Animal Technology Co., Ltd.) with a body weight range of 200 to 250 g were used. After acclimatization, the rats were administered a clear solution of the compound of the present disclosure via oral gavage (Po, fasted overnight before administration with free access to water, food returned 4 hours after administration) and tail vein injection (Iv, free access to food and water throughout the administration). Blood samples were collected from the orbital venous plexus/jugular vein of rats at specified time points after administration (blood collection time points for the PO group: 0.167, 0.5, 1, 2, 4, 6, 8, and 24 h; for the IV group: 0.033, 0.167, 1, 2, 4, 6, 8, and 24 h). The concentration of compounds in plasma was detected by LC-MS/MS (AB SCIEX Qtrap4500). Data were analyzed using WinNonlin (version 5.2.1 Pharsight, Mountain View, CA) with a non-compartmental model to obtain PK parameters (including Cmax, C0, Tmax, AUClast, AUCinf, T1/2, etc.).
Table 3: Results of in vivo pharmacokinetic studies of compounds of the present disclosure in rats
The vehicle for the Po group compound was 5% DMSO + 5% ethanol + 60% PEG400 + 30% normal saline; the vehicle for the Iv group compound was 10% ethanol + 20% pure water + 70% PEG400 solution.

[3] = Table 1, read-out: LPAR1 inhibitory activity IC50
[4] = male, rat, SD rats, Iv, 1 mg/kg
[5] = male, rat, SD rats, Iv, 1 mg/kg, read-out: Cmax
[6] = male, rat, SD rats, Po, 1 mg/kg
[7] = male, rat, SD rats, Po, 1 mg/kg, read-out: Cmax
[8] = LPAR1 inhibitory activity IC50, Table 1
[9] = rat, SD rats, Iv, 1 mg/kg, read-out: Cmax
[10] = rat, SD rats, Po, 1 mg/kg, read-out: Cmax
[11] = male, rat, SD rats, Po, 3 mg/kg
[12] = male, rat, SD rats, Po, 3 mg/kg, read-out: Cmax

Chain of hLPAR1 (human lysophosphatidic acid receptor 1, Accession No.: NM_001401.4) (Q92633 whole entry): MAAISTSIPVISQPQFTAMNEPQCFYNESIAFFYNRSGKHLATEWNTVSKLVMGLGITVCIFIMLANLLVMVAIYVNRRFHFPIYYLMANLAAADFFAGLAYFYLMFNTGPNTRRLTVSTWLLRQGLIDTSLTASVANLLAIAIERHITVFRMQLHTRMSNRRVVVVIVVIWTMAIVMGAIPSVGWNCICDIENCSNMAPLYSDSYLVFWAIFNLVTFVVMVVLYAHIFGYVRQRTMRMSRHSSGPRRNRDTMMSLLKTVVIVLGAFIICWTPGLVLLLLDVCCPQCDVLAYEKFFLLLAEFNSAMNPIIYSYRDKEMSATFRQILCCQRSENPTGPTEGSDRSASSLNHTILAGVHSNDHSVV

Row | SMILES | pIC50 [1, 3] | half-life ([2]; male, SD, rat, iv, 1 mg/kg) | half-life ([2]; male, SD, rat, po, 1 mg/kg) | AUC(0-t) [2, 4] | Cmax [2, 5] | AUC(0-t) [2, 6] | Cmax [2, 7] | also measured
1 | CCC(F)(F)[C@@H](C)OC(=O)Nc1c(-c2ccc(C#C[C@@H]3CCC[C@H]3C(=O)O)c(C)n2)nnn1C (mixture of isomers) [219-B, trans-2-((6-(5-(((((R)-3,3-difluoropentan-2-yl)oxy)carbonyl)amino)-1-methyl-1H-1,2,3-triazol-4-yl)-2-methylpyridin-3-yl)ethynyl)cyclopentane-1-carboxylic acid] | 7.94 | 3.89 h | 4.24 h | 5000 to 10000 ng·h/mL | 800 to 5000 ng/mL | 5000 to 10000 ng·h/mL | 800 to 5000 ng/mL | –
2 | CCCCN(C)C(=O)OCc1c(-c2ccc(C#CC3(CC(=O)O)CC3)c(F)n2)nnn1C [compound 105] | – | – | – | – | – | – | – | pIC50 [1, 8]: 7.25; AUC(0-t) ([2]; rat, SD rats, Iv, 1 mg/kg): 1200 to 3000 ng·h/mL; half-life ([2]; rat, SD rats, Iv, 1 mg/kg): 4.72 h; Cmax [2, 9]: 800 to 5000 ng/mL; AUC(0-t) ([2]; rat, SD rats, Po, 1 mg/kg): 1200 to 3000 ng·h/mL; half-life ([2]; rat, SD rats, Po, 1 mg/kg): 6.6 h; Cmax [2, 10]: 200 to 800 ng/mL
3 | Cc1nc(-c2nnn(C)c2NC(=O)O[C@H](C)CC(C)(F)F)ccc1C#C[C@@H]1CC[C@H]1C(=O)O (mixture of isomers) [213-B, trans-2-((6-(5-(((((R)-4,4-difluoropentan-2-yl)oxy)carbonyl)amino)-1-methyl-1H-1,2,3-triazol-4-yl)-2-methylpyridin-3-yl)ethynyl)cyclobutane-1-carboxylic acid] | 7.43 | – | – | – | – | – | – | AUClast ([2]; SD rats, Iv, 1 mg/kg): *** (5000 ng/mL*hr ≤ AUClast < 10000 ng/mL*hr); Cmax ([2]; SD rats, Iv, 1 mg/kg): ** (800 ng/mL ≤ Cmax < 5000 ng/mL); T1/2 ([2]; SD rats, Iv, 1 mg/kg): 8.67 h; half-life ([2]; male, SD, rat, po, 3 mg/kg): 9.6 h; AUC(0-t) [2, 11]: 10000 to 20000 ng·h/mL; Cmax [2, 12]: 800 to 5000 ng/mL
4 | Cc1nc(-c2nnn(C)c2NC(=O)O[C@H](C)c2ccccc2Cl)ccc1C#C[C@H]1CC[C@@H]1C(=O)O [compound 033] | – | – | – | – | – | – | – | pIC50 [1, 8]: 8.48; AUC(0-t) ([2]; rat, SD rats, Iv, 1 mg/kg): 3000 to 5000 ng·h/mL; half-life ([2]; rat, SD rats, Iv, 1 mg/kg): 5.93 h; Cmax [2, 9]: 800 to 5000 ng/mL; AUC(0-t) ([2]; rat, SD rats, Po, 1 mg/kg): 3000 to 5000 ng·h/mL; half-life ([2]; rat, SD rats, Po, 1 mg/kg): 5.31 h; Cmax [2, 10]: 800 to 5000 ng/mL
5 | Cc1nc(-c2nnn(C)c2CNC(=O)OCCC(C)C)ccc1C#CC1(CC(=O)O)CC1 [compound 253] | 7.14 | 4.06 h | – | 1200 to 3000 ng·h/mL | 5000 to 8000 ng/mL | – | – | half-life ([2]; male, SD, rat, po, 3 mg/kg): 3.45 h; AUC(0-t) [2, 11]: 5000 to 10000 ng·h/mL; Cmax [2, 12]: 800 to 5000 ng/mL
6 | CC(OC(=O)Nc1c(-c2ccc(C#CC3(CC(=O)O)CC3)c(F)n2)nnn1C)C12CC(C1)C2 (stereo not shown) [237-A, 2-(1-((6-(5-(((1-(bicyclo[1.1.1]pentan-1-yl)ethoxy)carbonyl)amino)-1-methyl-1H-1,2,3-triazol-4-yl)-2-fluoropyridin-3-yl)ethynyl)cyclopropyl)acetic acid] | 7.46 | 5.19 h | 4 h | 5000 to 10000 ng·h/mL | 5000 to 8000 ng/mL | 5000 to 10000 ng·h/mL | 800 to 5000 ng/mL | –
7 | Cc1nc(-c2nnn(C)c2NC(=O)O[C@H](C)CC(C)(F)F)ccc1C#CC1(CC(=O)O)CCC1 [compound 324] | 7.30 | 12.1 h | 5.73 h | 3000 to 5000 ng·h/mL | 800 to 5000 ng/mL | 5000 to 10000 ng·h/mL | 800 to 5000 ng/mL | –
8 | Cc1nc(-c2nnn(C)c2NC(=O)O[C@H](C)CC(C)(C)F)ccc1C#CC1(CC(=O)O)CC1 [compound 263] | – | – | – | – | – | – | – | pIC50 [1, 8]: 7.28; AUC(0-t) ([2]; rat, SD rats, Iv, 1 mg/kg): 3000 to 5000 ng·h/mL; half-life ([2]; rat, SD rats, Iv, 1 mg/kg): 13.8 h; Cmax [2, 9]: 800 to 5000 ng/mL; AUC(0-t) ([2]; rat, SD rats, Po, 1 mg/kg): 5000 to 10000 ng·h/mL; half-life ([2]; rat, SD rats, Po, 1 mg/kg): 10.2 h; Cmax [2, 10]: 200 to 800 ng/mL
9 | Cc1nc(-c2nnn(C)c2COc2nccc(C3CC(F)(F)C3)n2)ccc1C#CC1(CC(=O)O)CC1 [compound 216, 2-(1-((6-(5-(((4-(3,3-difluorocyclobutyl)pyrimidin-2-yl)oxy)methyl)-1-methyl-1H-1,2,3-triazol-4-yl)-2-methylpyridin-3-yl)ethynyl)cyclopropyl)acetic acid] | 7.63 | 4.9 h | – | 1200 to 3000 ng·h/mL | 5000 to 8000 ng/mL | – | – | half-life ([2]; male, SD, rat, po, 3 mg/kg): 4.44 h; AUC(0-t) [2, 11]: 5000 to 10000 ng·h/mL; Cmax [2, 12]: 800 to 5000 ng/mL
10 | Cc1nc(-c2nnn(C)c2CNc2nccc(C3CC(F)(F)C3)n2)ccc1C#CC1(CC(=O)O)CC1 [compound 254] | 7.19 | 7.04 h | 5.13 h | 3000 to 5000 ng·h/mL | 5000 to 8000 ng/mL | 3000 to 5000 ng·h/mL | 200 to 800 ng/mL | –
11 | Cc1nc(-c2nnn(C)c2NC(=O)O[C@H](C)C(F)(F)C(C)C)ccc1C#CC1(CC(=O)O)CC1 [compound 265] | 7.67 | – | 8.5 h | – | – | 3000 to 5000 ng·h/mL | 200 to 800 ng/mL | half-life ([2]; male, SD, rat, iv, 0.63 mg/kg): 7.81 h; AUC(0-t) ([2]; male, rat, SD rats, Iv, 0.63 mg/kg): 1200 to 3000 ng·h/mL; Cmax ([2]; male, rat, SD rats, Iv, 0.63 mg/kg, read-out: Cmax): 800 to 5000 ng/mL
12 | Cc1nc(-c2nnn(C)c2NC(=O)O[C@H](C)CC(C)(F)F)ccc1C#C[C@H]1CCC[C@@H]1C(=O)O (single isomer, unassigned) [246-B] | – | – | – | – | – | – | – | pIC50 [1, 8]: 7.59; AUC(0-t) ([2]; rat, SD rats, Iv, 1 mg/kg): 5000 to 10000 ng·h/mL; half-life ([2]; rat, SD rats, Iv, 1 mg/kg): 7.01 h; Cmax [2, 9]: 800 to 5000 ng/mL; AUC(0-t) ([2]; rat, SD rats, Po, 1 mg/kg): 3000 to 5000 ng·h/mL; half-life ([2]; rat, SD rats, Po, 1 mg/kg): 4.4 h; Cmax [2, 10]: 200 to 800 ng/mL
13 | Cc1nc(-c2nnn(C)c2CNc2nccc(C3CCC3)n2)ccc1C#CC1(CC(=O)O)CC1 [compound 214, 2-(1-((6-(5-(((4-cyclobutylpyrimidin-2-yl)amino)methyl)-1-methyl-1H-1,2,3-triazol-4-yl)-2-methylpyridin-3-yl)ethynyl)cyclopropyl)acetic acid] | 8.03 | 7.01 h | – | 3000 to 5000 ng·h/mL | 800 to 5000 ng/mL | – | – | half-life ([2]; male, SD, rat, po, 3 mg/kg): 8.21 h; AUC(0-t) [2, 11]: 10000 to 20000 ng·h/mL; Cmax [2, 12]: 800 to 5000 ng/mL
14 | Cc1nc(-c2nnn(C)c2NC(=O)OC(C)c2cc(F)cnc2Cl)ccc1C#CC1(CC(=O)O)CC1 (single isomer, unassigned) [023-A, 2-(1-((6-(5-(((1-(2-chloro-5-fluoropyridin-3-yl)ethoxy)carbonyl)amino)-1-methyl-1H-1,2,3-triazol-4-yl)-2-methylpyridin-3-yl)ethynyl)cyclopropyl)acetic acid] | 7.43 | 7.5 h | – | 3000 to 5000 ng·h/mL | 5000 to 8000 ng/mL | – | – | –
15 | Cc1nc(-c2nnn(C)c2NC(=O)O[C@H](C)CC(C)(C)F)ccc1C#C[C@@H]1CCC[C@H]1C(=O)O (mixture of isomers) [244-B, trans-2-((6-(5-(((((R)-4-fluoro-4-methylpentan-2-yl)oxy)carbonyl)amino)-1-methyl-1H-1,2,3-triazol-4-yl)-2-methylpyridin-3-yl)ethynyl)cyclopentane-1-carboxylic acid] | 7.72 | 5.05 h | 4.07 h | 5000 to 10000 ng·h/mL | 800 to 5000 ng/mL | 5000 to 10000 ng·h/mL | 800 to 5000 ng/mL | –
16 | C[C@H](C1CC1)N(C)C(=O)OCc1c(-c2ccc(C#CC3(CC(=O)O)CC3)cn2)nnn1C [compound 002, (R)-2-(1-((6-(5-((((1-cyclopropylethyl)(methyl)carbamoyl)oxy)methyl)-1-methyl-1H-1,2,3-triazol-4-yl)pyridin-3-yl)ethynyl)cyclopropyl)acetic acid] | 7.08 | 7.18 h | – | 1200 to 3000 ng·h/mL | 5000 to 8000 ng/mL | – | – | half-life ([2]; male, SD, rat, po, 3 mg/kg): 3.4 h; AUC(0-t) [2, 11]: 3000 to 5000 ng·h/mL; Cmax [2, 12]: 800 to 5000 ng/mL
17 | C[C@H](CC(C)(F)F)OC(=O)Nc1c(-c2ccc(C#CC3(CC(=O)O)CC3)c(Cl)n2)nnn1C [compound 210, (R)-2-(1-((2-chloro-6-(5-((((4,4-difluoropentan-2-yl)oxy)carbonyl)amino)-1-methyl-1H-1,2,3-triazol-4-yl)pyridin-3-yl)ethynyl)cyclopropyl)acetic acid] | 7.60 | 6.18 h | 6.08 h | 5000 to 10000 ng·h/mL | 800 to 5000 ng/mL | 3000 to 5000 ng·h/mL | 200 to 800 ng/mL | –
18 | Cc1nc(-c2nnn(C)c2NC(=O)OC(C)CC2CC2)ccc1C#CC1CCC1C(=O)O (single isomer, unassigned) [248-A] | 7.74 | – | – | – | – | – | – | AUC(0-t) ([2]; rat, SD rats, Iv, 1 mg/kg): 3000 to 5000 ng·h/mL; half-life ([2]; rat, SD rats, Iv, 1 mg/kg): 7.72 h; Cmax [2, 9]: 800 to 5000 ng/mL; AUC(0-t) ([2]; rat, SD rats, Po, 1 mg/kg): 5000 to 10000 ng·h/mL; half-life ([2]; rat, SD rats, Po, 1 mg/kg): 5.33 h; Cmax [2, 10]: 200 to 800 ng/mL
19 | Cc1nc(-c2cnn(C)c2NC(=O)O[C@H](C)c2ccccc2Cl)ccc1C#CC1(CC(=O)O)CC1 [compound 005, (R)-2-(1-((6-(5-(((1-(2-chlorophenyl)ethoxy)carbonyl)amino)-1-methyl-1H-pyrazol-4-yl)-2-methylpyridin-3-yl)ethynyl)cyclopropyl)acetic acid] | 7.65 | – | – | – | – | – | – | –
